Values of other authors as cited in paper PMC8067797, “An In Vivo Predictive Dissolution Methodology (iPD Methodology) with a BCS Class IIb Drug Can Predict the In Vivo Bioequivalence Results: Etoricoxib Products” (Pharmaceutics, 2021).
≈ marks a conversion by molar mass, not a printed value. Where “and” joins values, the source holds several entries; their conditions need not be identical. Equal entries are not always repeated. Where two headings read alike, the source gives them in different places.

Experiments:
[1] = not given; remark: listed apart in the source
[2] = not given; remark: listed apart in the source
Caco-2 = settings: used for plasma simulations; ref [6]
[3] = design: method as in Schwartz et al. [23]; settings: ref Schwartz et al. [23]
[4] = design: method as in Okumu et al. [7]; settings: ref Okumu et al. [7]
[5] = curve fitting of literature data, ref [6]

- Cs, solubility (pH 4.5, ref [7]): 440 µg/mL
- solubility in FaSSIF or simulated intestinal fluids (SIF phosphate buffer) (pH 6.8, ref [7]): 140 µg/mL (≈ 0.39 mM)
- solubility in the stomach (ref Mitra el al. [6]): 25000 µg/mL (≈ 69.7 mM)
- BCS classification ([1]; low solubility pH 4–7, high permeability): BCS class II
- logP ([1]; ref [14]): 2.79 and 2.794
- pKa ([1]; weak base, ref [6],[7]): 4.96
- Central compartment volume—Vc ([2]; average value, curve fitting of literature data, ref [6],[9],[21]): 27.40 L
- Distribution rate constant from central to peripheral compartment—k12 [2, 5]: 0.6180 h⁻¹
- Distribution rate constant from peripheral to central compartment—k21 [2, 5]: 0.2820 h⁻¹
- Elimination rate constant from central compartment—ke [2, 5]: 0.0899 h⁻¹
- Pharmacokinetics dose linearity ([2]; dose range 30–240 mg, ref [8]): linear
- oral bioavailability ([2]; oral dosing, ref [8]): up to 100%
- Oral absolute bioavailability ([2]; ref [9]): 83%
- Oral absolute bioavailability ([2]; ref [10]): practically complete
- Effective Permeability Small Intestine—Peff (Caco-2): 475 ×10⁻⁶ cm/s
- reduction of plasma Cmax ([3]; with calcium carbonate): 23%
- reduction of plasma Cmax ([3]; with magnesium and aluminum hydroxide): 15%
- precipitation in transfer system [4]: did not observe precipitation
- supersaturation ratio (dissolved concentration / equilibrium solubility) ([4]; transfer system): below 3
Compound: Cc1ccc(-c2ncc(Cl)cc2-c2ccc(S(C)(=O)=O)cc2)cn1 [ETO, Etoricoxib]
